In patent WO2016116777A1, “Compositions and methods for treatment of chronic lymphocytic leukemia and small lymphocytic leukemia using a btk inhibitor” (dated 2016):
pEC50, pIC50: −log10 of the molar value. Entries after “also recorded” stand apart in the source; their conditions may differ.

Tests used:
[1] = system: human platelet-mediated thrombosis; assay: In vivo human platelet thrombus formation in VWF HA1 mutant mice (laser injury)
[2] = target: T1, interleukin-2 inducible tyrosine kinase (ITK) (Homo sapiens, UniProt Q08881); settings: cited from earlier work
T1 sequence (Q08881 1-620): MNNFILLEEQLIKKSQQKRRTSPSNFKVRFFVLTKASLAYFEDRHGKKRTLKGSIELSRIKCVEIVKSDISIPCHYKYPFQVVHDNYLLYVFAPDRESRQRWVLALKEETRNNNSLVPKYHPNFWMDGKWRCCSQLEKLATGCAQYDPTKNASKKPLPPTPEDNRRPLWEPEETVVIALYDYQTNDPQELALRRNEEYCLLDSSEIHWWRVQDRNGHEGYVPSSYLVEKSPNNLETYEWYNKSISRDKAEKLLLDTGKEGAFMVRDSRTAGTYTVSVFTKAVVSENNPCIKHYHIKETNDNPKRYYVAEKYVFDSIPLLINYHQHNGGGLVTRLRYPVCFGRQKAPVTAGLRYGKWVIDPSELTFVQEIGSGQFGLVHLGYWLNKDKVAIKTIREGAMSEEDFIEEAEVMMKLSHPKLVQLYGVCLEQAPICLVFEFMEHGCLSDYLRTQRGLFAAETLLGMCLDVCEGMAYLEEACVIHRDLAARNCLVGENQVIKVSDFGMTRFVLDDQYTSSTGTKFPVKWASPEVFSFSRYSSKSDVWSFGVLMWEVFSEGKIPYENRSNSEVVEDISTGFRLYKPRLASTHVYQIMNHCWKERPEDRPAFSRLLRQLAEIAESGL

[3] = system: platelet collagen receptor glycoprotein VI (GPVI); assay: GPVI platelet aggregation; format: cell-based, human
B cell receptor = assay: In vitro potency in whole blood, inhibition of signals through the B cell receptor (CD69); format: cell-based; settings: whole blood from four healthy donors, 2 hours incubation, anti-human IgD 18 hours, read-out: EC50, CD69 on gated CD19+ B cells
regulatory T cell (Treg) = assay: Effect on Treg development
[4] = system: NK cells (CD56+/CD107a+) with MEC-1 cells; assay: NK cell degranulation/ADCC whole blood assay with obinutuzumab-opsonised MEC-1 cells; format: cell-based, human; settings: 0.1, 1 and 10 μM, MEC-1 opsonised with obinutuzumab 1 μg/mL, 4 hours
Th17 cells = assay: Effect on Th17 cells
CD8+ T cell = assay: Effect on CD8+ T cell viability
NK cells = settings: cited from earlier work
[5] = system: cytochrome P450 (CYP) enzymes 3A4/5 and 2D6; settings: cited from earlier work
[6] = target: epidermal growth factor receptor (EGFR) (Homo sapiens, UniProt P00533); settings: in vitro; cited from earlier work
CLL = settings: cited from earlier work
[7] = Phase 1, previously treated CLL, monotherapy
[8] = Phase 1 portion, relapsed/refractory CLL, n=13

Sequence of epidermal growth factor receptor (EGFR) (P00533 25-1210): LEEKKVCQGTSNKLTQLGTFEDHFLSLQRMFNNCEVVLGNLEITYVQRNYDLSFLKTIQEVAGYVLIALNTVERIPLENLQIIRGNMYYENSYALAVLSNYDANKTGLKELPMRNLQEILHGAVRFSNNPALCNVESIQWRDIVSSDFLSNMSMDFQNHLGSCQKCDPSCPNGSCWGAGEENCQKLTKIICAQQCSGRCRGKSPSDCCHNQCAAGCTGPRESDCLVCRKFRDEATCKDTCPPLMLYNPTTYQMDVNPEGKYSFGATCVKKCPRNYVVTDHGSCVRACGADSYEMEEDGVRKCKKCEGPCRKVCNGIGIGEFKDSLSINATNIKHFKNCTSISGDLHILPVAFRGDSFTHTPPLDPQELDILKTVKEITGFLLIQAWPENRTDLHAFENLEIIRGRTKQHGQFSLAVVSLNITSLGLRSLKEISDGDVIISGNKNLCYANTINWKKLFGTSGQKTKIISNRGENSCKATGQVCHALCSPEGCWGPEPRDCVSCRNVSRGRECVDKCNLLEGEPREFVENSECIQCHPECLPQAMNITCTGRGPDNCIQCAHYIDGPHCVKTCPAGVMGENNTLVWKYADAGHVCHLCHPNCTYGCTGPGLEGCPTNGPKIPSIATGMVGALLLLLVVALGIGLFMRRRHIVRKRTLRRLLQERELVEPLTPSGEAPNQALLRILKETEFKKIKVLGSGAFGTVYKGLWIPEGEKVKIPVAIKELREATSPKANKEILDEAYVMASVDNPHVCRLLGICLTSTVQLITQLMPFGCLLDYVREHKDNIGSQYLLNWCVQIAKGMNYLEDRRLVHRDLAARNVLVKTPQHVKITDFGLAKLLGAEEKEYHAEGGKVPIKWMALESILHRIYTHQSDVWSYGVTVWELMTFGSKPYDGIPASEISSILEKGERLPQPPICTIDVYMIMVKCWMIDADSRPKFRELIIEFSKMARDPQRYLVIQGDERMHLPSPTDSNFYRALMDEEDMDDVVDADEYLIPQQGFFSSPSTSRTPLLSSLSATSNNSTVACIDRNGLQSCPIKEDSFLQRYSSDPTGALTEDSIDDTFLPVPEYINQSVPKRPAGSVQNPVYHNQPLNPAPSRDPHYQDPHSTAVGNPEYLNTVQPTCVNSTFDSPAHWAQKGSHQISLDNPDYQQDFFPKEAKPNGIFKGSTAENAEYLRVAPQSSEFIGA

Molecule: C=CC(=O)Nc1cccc(Nc2nc(Nc3ccc(OCCOC)cc3)ncc2F)c1 [CC-292]
- effect on human platelet-mediated thrombus formation [1]: interfere with thrombus formation; also recorded: effect similar to ibrutinib

Molecule: C=CC(=O)N1CCC[C@@H](n2nc(-c3ccc(Oc4ccccc4)cc3)c3c(N)ncnc32)C1 [ibrutinib]
- ITK binding [2]: irreversibly binds ITK
- GPVI platelet aggregation [3]: significantly inhibits GPVI platelet aggregation
- pIC50 ([3]; Homo sapiens, Platelet): 6.89
- pEC50 (B cell receptor): 8.21
- effect on Treg development (regulatory T cell (Treg)): strongly increases Treg development; also recorded: increase in Treg development
- percentage of CD56+/CD107a+ NK cells / antagonism [4]: strong reduction
- effect on Th17 cells (Th17 cells): strongly inhibits Thl7 cells; also recorded: profound inhibition
- effect on CD8+ T cell viability (CD8+ T cell): strongly affects CD8 T cell viability at higher doses; also recorded: strong, negative effect
- effect on rituximab ADCC mediated by NK cells (NK cells): antagonizes rituximab antibody-dependent cell mediated cytotoxicity (ADCC); also recorded: undesirably antagonizes rituximab ADCC effects
- CYP substrate [5]: substrate for both cytochrome P450 (CYP) enzymes 3A4/5 and 2D6
- EGFR inhibition [6]: inhibits epidermal growth factor receptor (EGFR)

Molecule: obinutuzumab: humanized monoclonal antibody directed against CD20
- MRD-negative complete response, number (CLL; [7]): 1
- response rate (CLL; [7]): 62%
- patients with Grade 3 IRRs (CLL; [8]): 15%
- patients with Grade 4 IRRs (CLL; [8]): no Grade 4
- patients with IRRs, all grade (CLL; [8]): 100%
- patients developing IRR (CLL; Phase 2 portion, relapsed/refractory CLL): 95%
- Grade 3 reactions among those (CLL; Phase 2 portion): 25%
- cases developing symptoms of hypotension (CLL; Phase 2 portion): 60%
